Results reported in patent US7635716B2, “Substituted cyclopentanes or cyclopentanones as therapeutic agents” (Allergan, Inc., priority 2005, dated 2009).

How the values were obtained:
hEP4 = biological target: T1, hEP4 (Homo sapiens, UniProt P35408); experiment: Radioligand binding, [3H]PGE2, HEK-293 cells stably expressing EP4 receptors; conditions: Table 1, second part; read-out: hEP4 Ki
T1 construct: expressed in transfected cells; host or cells: HEK-293 cells (plasma membrane fraction)
Protocol: (§1) HEK-293 cells stably expressing the human or feline FP receptor, or EP1, EP2, or EP4 receptors were washed with TME buffer, scraped from the bottom of the flasks, and homogenized for 30 sec using a Brinkman PT 10/35 polytron. TME buffer was added to achieve a final 40 ml volume in the centrifuge tubes (the composition of TME is 100 mM TRIS base, 20 mM MgCl2, […]; 10N HCl is added to achieve a pH of 7.4).
(§2) The cell homogenate was centrifuged at 19000 r.p.m. for 20 min at 4° C. using a Beckman Ti-60 rotor. The resultant pellet was resuspended in TME buffer to give a final 1 mg/ml protein concentration, as determined by Biorad assay. Radioligand binding competition assays vs. [^3H—]17 phenyl PGF2. (5 nM) were performed in a 100 μl volume for 60 min. Binding reactions were started by adding plasma membrane fraction. The reaction was terminated by the addition of 4 ml ice-cold TRIS-HCl buffer and rapid filtration through glass fiber GF/B filters using a Brandel cell harvester. The filters were washed 3 times with ice-cold buffer and oven dried for one hour.
[^3H—] PGE2 (specific activity 180 Ci mmol) was used as the radioligand for EP receptors. [^3H] 17-phenyl PGF2α was employed for FP receptor binding studies. […] A 200 μl assay volume was used. Incubations were for 60 min at 25° C. and were terminated by the addition of 4 ml of ice-cold 50 mM TRIS-HCl, followed by rapid filtration through Whatman GF/B filters and three additional 4 ml washes in a cell harvester (Brandel). Competition studies were performed using a final concentration of 5 nM [^3H]-PGE2, or 5 nM [^3H] 17-phenyl PGF2α and non-specific binding determined with 10^−5M of unlabeled PGE2, or 17-phenyl PGF2α, according to receptor subtype studied.

hEP2/Gqs5 = biological target: T2, hEP2/Gqs5 (Homo sapiens, UniProt P43116); experiment: FLIPR calcium signal, HEK-293(EBNA) cells; assay type: cell-based; conditions: Table 1, second part; read-out: hEP2 flipr EC50
T2 construct: expressed in transfected cells; host or cells: HEK-293(EBNA) cells
Protocol: (§3) HEK-293(EBNA) cells, stably expressing one type or subtype of recombinant human prostaglandin receptors (prostaglandin receptors expressed: hDP/Gqs5; hEP1; hEP2/Gqs5; hEP3A/Gqi5; hEP4/Gqs5; hFP; hIP; hTP), were cultured in 100 mm culture dishes in high-glucose DMEM medium containing 10% fetal bovine serum, 2 mM 1-glutamine, 250 μg/ml geneticin (G418) and 200 μg/ml hygromycin B as selection markers, and 100 units/ml penicillin G, 100 μg/ml streptomycin and 0.25 μg/ml amphotericin B.
(§4) Cells were seeded at a density of 5×10^4 cells per well in Biocoat® Poly-D-lysine-coated black-wall, clear-bottom 96-well plates (Becton-Dickinson) and allowed to attach overnight in an incubator at 37° C. Cells were then washed two times with HBSS-HEPES buffer (Hanks Balanced Salt Solution without bicarbonate and phenol red, 20 mM HEPES, pH 7.4) using a Denley Cellwash plate washer (Labsystems). After 45 minutes of dye-loading in the dark, using the calcium-sensitive dye Fluo-4 AM at a final concentration of 2 μM, plates were washed four times with HBSS-HEPES buffer to remove excess dye leaving 100 μl in each well. Plates were re-equilibrated to 37° C. for a few minutes.
(§5) Cells were excited with an Argon laser at 488 nm, and emission was measured through a 510-570 nm bandwidth emission filter (FLIPR™, Molecular Devices, Sunnyvale, Calif.). Drug solution was added in a 50 μl volume to each well to give the desired final concentration. The peak increase in fluorescence intensity was recorded for each well. On each plate, four wells each served as negative (HBSS-HEPES buffer) and positive controls (standard agonists: BW245C (hDP); PGE2 (hEP1; hEP2/Gqs5; hEP3A/Gqi5; hEP4/Gqs5); PGF2. (hFP); carbacyclin (hIP); U-46619 (hTP), depending on receptor). The peak fluorescence change in each drug-containing well was then expressed relative to the controls.
(§6) Compounds were tested in a high-throughput (HTS) or concentration-response (CoRe) format. In the HTS format, forty-four compounds per plate were examined in duplicates at a concentration of 10^−5 M. To generate concentration-response curves, four compounds per plate were tested in duplicates in a concentration range between 10^−5 and 10^−11 M. The duplicate values were averaged. In either, HTS or CoRe format each compound was tested on at least 3 separate plates using cells from different passages to give an n≧3.

hEP4/Gqs5 = biological target: T3, hEP4/Gqs5 (Homo sapiens, UniProt P35408); experiment: FLIPR calcium signal, HEK-293(EBNA) cells; assay type: cell-based; conditions: Table 1, second part; read-out: hEP4 flipr EC50
T3 construct: expressed in transfected cells; host or cells: HEK-293(EBNA) cells
Protocol: as §3, §4, §5, §6

hIP = biological target: T4, hIP (Homo sapiens, UniProt P43119); experiment: FLIPR calcium signal, HEK-293(EBNA) cells; assay type: cell-based; conditions: Table 1, second part; quantity not given, values match functional data (EC50) of first part; read-out: Other Receptors hIP
T4 construct: expressed in transfected cells; host or cells: HEK-293(EBNA) cells
Protocol: as §3, §4, §5, §6

hEP2 [1] = biological target: T5, hEP2 (Homo sapiens, UniProt P43116); experiment: hEP2 cAMP functional assay; assay type: cell-based; conditions: Table 1, second part
hEP2 [2] = biological target: T5, hEP2; experiment: Competition binding, [3H]PGE2, HEK 293 cells stably expressing human EP2 receptors; parameters: expressed in transfected cells; host or cells: HEK 293 cells (membranes or whole cells); conditions: Table 1, second part; read-out: hEP2 Ki
Protocol: Competition binding experiments were performed in a medium containing Hank's balanced salt solution, Hepes 20 mM, pH 7.3, membranes (˜60 μg protein) or 2×10^5 cells from HEK 293 cells stably expressing human EP2 receptors, [^3H]PGE2 (10 nM) and various concentrations of test compounds in a total volume of 300 μL. Reaction mixtures were incubated at 23° C. for 60 min, and were filtered over Whatman GF/B filters under vacuum. Filters were washed three times with 5 ml ice-cold buffer containing 50 mM Tris/HCl (pH 7.3). Non-specific binding was estimated in the presence of excess unlabeled PGE2 (10 μM). Binding data fitted to the binding model for a single class of binding sites, using nonlinear regression analysis. IC50 values thus obtained were converted to Ki using the equation of Ki=(IC50/(1+[L]/KD) where [L] represents PGE2 concentration (10 nM) and KD the dissociation constant for [^3H]PGE2 at human EP2 receptors (40 nM).
as §1, §2
[^3H—] PGE2 (specific activity 180 Ci mmol) was used as the radioligand for EP receptors. [^3H] 17-phenyl PGF2α was employed for FP receptor binding studies. Binding studies employing EP1, EP2, EP4 and FP receptors were performed in duplicate in at least three separate experiments. A 200 μl assay volume was used. Incubations were for 60 min at 25° C. and were terminated by the addition of 4 ml of ice-cold 50 mM TRIS-HCl, followed by rapid filtration through Whatman GF/B filters and three additional 4 ml washes in a cell harvester (Brandel). Competition studies were performed using a final concentration of 5 nM [^3H]-PGE2, or 5 nM [^3H] 17-phenyl PGF2α and non-specific binding determined with 10^−5M of unlabeled PGE2, or 17-phenyl PGF2α, according to receptor subtype studied.

T5 sequence (P43116 whole entry): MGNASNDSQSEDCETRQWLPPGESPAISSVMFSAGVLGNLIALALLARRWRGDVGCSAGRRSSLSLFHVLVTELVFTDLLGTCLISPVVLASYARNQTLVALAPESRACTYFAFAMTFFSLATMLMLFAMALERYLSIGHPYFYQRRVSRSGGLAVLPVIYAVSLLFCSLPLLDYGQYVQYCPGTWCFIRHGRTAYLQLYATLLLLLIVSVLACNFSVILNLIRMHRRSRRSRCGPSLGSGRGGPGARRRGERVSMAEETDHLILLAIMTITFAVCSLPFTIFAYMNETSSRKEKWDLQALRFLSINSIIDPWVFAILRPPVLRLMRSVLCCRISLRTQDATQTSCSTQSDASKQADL
T2 sequence (P43116 whole entry): as above
T1 sequence (P35408 whole entry): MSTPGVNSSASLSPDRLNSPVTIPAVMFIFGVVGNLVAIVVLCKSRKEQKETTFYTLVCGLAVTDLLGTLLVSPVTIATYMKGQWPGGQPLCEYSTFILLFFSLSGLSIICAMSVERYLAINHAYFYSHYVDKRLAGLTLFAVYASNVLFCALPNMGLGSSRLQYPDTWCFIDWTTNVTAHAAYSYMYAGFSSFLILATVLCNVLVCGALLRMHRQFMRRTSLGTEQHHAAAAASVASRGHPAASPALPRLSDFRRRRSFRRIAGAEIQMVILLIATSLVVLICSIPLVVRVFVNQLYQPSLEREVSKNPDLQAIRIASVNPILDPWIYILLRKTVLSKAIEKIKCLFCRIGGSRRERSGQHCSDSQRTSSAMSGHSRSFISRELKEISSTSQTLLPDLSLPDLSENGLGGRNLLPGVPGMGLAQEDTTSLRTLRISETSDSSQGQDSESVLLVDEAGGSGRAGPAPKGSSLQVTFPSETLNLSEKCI
T3 sequence (P35408 whole entry): as above
T4 sequence (P43119 whole entry): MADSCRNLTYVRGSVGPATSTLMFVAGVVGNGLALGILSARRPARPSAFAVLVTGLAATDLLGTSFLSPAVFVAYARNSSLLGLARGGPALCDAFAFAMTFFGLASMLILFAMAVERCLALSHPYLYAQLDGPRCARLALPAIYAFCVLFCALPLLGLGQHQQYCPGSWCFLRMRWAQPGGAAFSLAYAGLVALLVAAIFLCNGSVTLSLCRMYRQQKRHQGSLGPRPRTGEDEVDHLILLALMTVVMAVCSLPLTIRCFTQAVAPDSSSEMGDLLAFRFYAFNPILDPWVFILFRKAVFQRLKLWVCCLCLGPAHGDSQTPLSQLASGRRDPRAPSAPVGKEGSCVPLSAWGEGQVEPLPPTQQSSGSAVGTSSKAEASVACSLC

Q: How did the Ki (hEP4) turn out when `O=Cc1cccc(OC[C@@H]2[C@@H](C/C=C\CCCC(=O)O)[C@H](Cl)C[C@H]2O)c1` [Example 48, (Z)-7-[(1R,2S,3R,5R)-5-Chloro-2-(3-formyl-phenoxymethyl)-3-hydroxy-cyclopentyl]-hept-5-enoic acid] was run?
A: Its Ki is 14.7 µM.

Q: And the EC50 (hEP2/Gqs5)?
A: The EC50 was 0.192 µM.

Q: What about the EC50 (hEP4/Gqs5) of the same compound?
A: Its EC50 is greater than 10 µM.

Q: What about the EC50 (hIP) of the same compound?
A: The EC50 was 2.69 µM.

Q: And the EC50 (hEP2 [1])?
A: Its EC50 is 0.041 µM.

Q: What about the Ki (hEP2 [2]) of the same compound?
A: Its Ki is 0.291 µM.
